Data as given in PubChem BioAssay (NCI).
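Cells were grown in 96-well plates and exposed to each compound for 48 hours at five concentrations; endpoints were interpolated linearly between bracketing concentrations, or set to the highest concentration if not reached. TGI marks complete inhibition of growth.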

Tests used:
Assay in all cases: NCI anticancer screen, dose series, 48 h
786-0 renal = tested on: 786-0 renal
A498 renal = tested on: A498 renal
A549 NSCLC = tested on: A549 NSCLC
ACHN renal = tested on: ACHN renal
BT-549 breast = tested on: BT-549 breast
CAKI-1 renal = tested on: CAKI-1 renal
COLO 205 colon = tested on: COLO 205 colon
DU-145 prostate = tested on: DU-145 prostate
EKVX NSCLC = tested on: EKVX NSCLC
HCT-116 colon = tested on: HCT-116 colon
HCT-15 colon = tested on: HCT-15 colon
HL-60(TB) leukemia = tested on: HL-60(TB) leukemia
HOP-62 NSCLC = tested on: HOP-62 NSCLC
HOP-92 NSCLC = tested on: HOP-92 NSCLC
HS 578T breast = tested on: HS 578T breast
HT29 colon = tested on: HT29 colon
IGROV1 ovarian = tested on: IGROV1 ovarian
K-562 leukemia = tested on: K-562 leukemia
KM12 colon = tested on: KM12 colon
LOX IMVI melanoma = tested on: LOX IMVI melanoma
M14 melanoma = tested on: M14 melanoma
MALME-3M melanoma = tested on: MALME-3M melanoma
MCF7 breast = tested on: MCF7 breast
MDA-MB-231 breast = tested on: MDA-MB-231 breast
MDA-MB-435 = tested on: MDA-MB-435
MDA-N = tested on: MDA-N
MOLT-4 leukemia = tested on: MOLT-4 leukemia
NCI-H226 lung = tested on: NCI-H226 lung
NCI-H23 lung = tested on: NCI-H23 lung
NCI-H522 lung = tested on: NCI-H522 lung
NCI/ADR-RES ovarian = tested on: NCI/ADR-RES ovarian
OVCAR-3 ovarian = tested on: OVCAR-3 ovarian
OVCAR-4 ovarian = tested on: OVCAR-4 ovarian
OVCAR-5 ovarian = tested on: OVCAR-5 ovarian
OVCAR-8 ovarian = tested on: OVCAR-8 ovarian
PC-3 prostate = tested on: PC-3 prostate
RPMI-8226 leukemia = tested on: RPMI-8226 leukemia
RXF 393 renal = tested on: RXF 393 renal
SF-268 CNS = tested on: SF-268 CNS
SF-295 CNS = tested on: SF-295 CNS
SF-539 CNS = tested on: SF-539 CNS
SK-MEL-2 melanoma = tested on: SK-MEL-2 melanoma
SK-MEL-28 melanoma = tested on: SK-MEL-28 melanoma
SK-MEL-5 melanoma = tested on: SK-MEL-5 melanoma
SK-OV-3 ovarian = tested on: SK-OV-3 ovarian
SN12C renal = tested on: SN12C renal
SNB-19 CNS = tested on: SNB-19 CNS
SNB-75 CNS = tested on: SNB-75 CNS
SR leukemia = tested on: SR leukemia
SW-620 colon = tested on: SW-620 colon
T-47D breast = tested on: T-47D breast
TK-10 renal = tested on: TK-10 renal
U251 CNS = tested on: U251 CNS
UACC-257 melanoma = tested on: UACC-257 melanoma
UACC-62 melanoma = tested on: UACC-62 melanoma
UO-31 renal = tested on: UO-31 renal
CCRF-CEM leukemia = tested on: CCRF-CEM leukemia
HCC-2998 colon = tested on: HCC-2998 colon
NCI-H460 lung = tested on: NCI-H460 lung

`COc1cc(C(c2c(O)c3ccccc3oc2=O)c2c(O)c3ccccc3oc2=O)cc(Br)c1O` gave a TGI (786-0 renal) of 37.8 µM, a TGI (A498 renal) of 29.4 µM and a TGI (A549 NSCLC) of 35.6 µM. It also gave a TGI (ACHN renal) of 31.2 µM, a TGI (BT-549 breast) of 32.5 µM and a TGI (CAKI-1 renal) of 34.9 µM. For the same compound, the TGI (COLO 205 colon) was 32 µM, the TGI (DU-145 prostate) was 33.6 µM and the TGI (EKVX NSCLC) was 34.2 µM. The TGI (HCT-116 colon) was 32.7 µM, the TGI (HCT-15 colon) was 36.4 µM and the TGI (HL-60(TB) leukemia) was 64.2 µM. For the same compound, the TGI (HOP-62 NSCLC) was 45.8 µM, the TGI (HOP-92 NSCLC) was 26.2 µM and the TGI (HS 578T breast) was 51.8 µM. For the same compound, the TGI (HT29 colon) was 37.1 µM, the TGI (IGROV1 ovarian) was 30 µM and the TGI (K-562 leukemia) was greater than 100 µM. It also gave a TGI (KM12 colon) of 38.7 µM, a TGI (LOX IMVI melanoma) of 33.8 µM and a TGI (M14 melanoma) of 31.4 µM. The TGI (MALME-3M melanoma) was 31 µM, the TGI (MCF7 breast) was 31.3 µM and the TGI (MDA-MB-231 breast) was 32.8 µM. The TGI (MDA-MB-435) was 51.6 µM, the TGI (MDA-N) was 36 µM and the TGI (MOLT-4 leukemia) was 64.8 µM. For the same compound, the TGI (NCI-H226 lung) was 49.1 µM, the TGI (NCI-H23 lung) was 42.7 µM and the TGI (NCI-H522 lung) was 26.8 µM. For the same compound, the TGI (NCI/ADR-RES ovarian) was 53.1 µM, the TGI (OVCAR-3 ovarian) was 30.9 µM and the TGI (OVCAR-4 ovarian) was 30.9 µM. It also gave a TGI (OVCAR-5 ovarian) of 39.3 µM, a TGI (OVCAR-8 ovarian) of 32.3 µM and a TGI (PC-3 prostate) of 35 µM. The TGI (RPMI-8226 leukemia) was 80.4 µM, the TGI (RXF 393 renal) was 39.6 µM and the TGI (SF-268 CNS) was 30 µM. For the same compound, the TGI (SF-295 CNS) was 40.3 µM, the TGI (SF-539 CNS) was 33.7 µM and the TGI (SK-MEL-2 melanoma) was 42.5 µM. The TGI (SK-MEL-28 melanoma) was 59.2 µM, the TGI (SK-MEL-5 melanoma) was 29.8 µM and the TGI (SK-OV-3 ovarian) was 35.8 µM. The TGI (SN12C renal) was 29.8 µM, the TGI (SNB-19 CNS) was 36.1 µM and the TGI (SNB-75 CNS) was 39.4 µM. For the same compound, the TGI (SR leukemia) was 58.3 µM, the TGI (SW-620 colon) was 48.4 µM and the TGI (T-47D breast) was 53.3 µM. For the same compound, the TGI (TK-10 renal) was 30.6 µM, the TGI (U251 CNS) was 31.9 µM and the TGI (UACC-257 melanoma) was 33 µM. The TGI (UACC-62 melanoma) was 29.6 µM and the TGI (UO-31 renal) was 31 µM.

`CC(C)C(=O)C(C)(C)CCc1ccccn1` showed a TGI (786-0 renal) greater than 100 µM, a TGI (A498 renal) greater than 100 µM and a TGI (A549 NSCLC) greater than 100 µM. For the same compound, the TGI (ACHN renal) was greater than 100 µM, the TGI (BT-549 breast) was greater than 100 µM and the TGI (CAKI-1 renal) was greater than 100 µM. It also gave a TGI (CCRF-CEM leukemia) greater than 100 µM, a TGI (COLO 205 colon) greater than 100 µM and a TGI (DU-145 prostate) greater than 100 µM. It also gave a TGI (EKVX NSCLC) greater than 100 µM, a TGI (HCC-2998 colon) greater than 100 µM and a TGI (HCT-116 colon) greater than 100 µM. For the same compound, the TGI (HCT-15 colon) was greater than 100 µM, the TGI (HL-60(TB) leukemia) was greater than 100 µM and the TGI (HOP-62 NSCLC) was greater than 100 µM. The TGI (HOP-92 NSCLC) was greater than 100 µM, the TGI (HS 578T breast) was greater than 100 µM and the TGI (HT29 colon) was greater than 100 µM. For the same compound, the TGI (IGROV1 ovarian) was greater than 100 µM, the TGI (K-562 leukemia) was greater than 100 µM and the TGI (KM12 colon) was greater than 100 µM. For the same compound, the TGI (LOX IMVI melanoma) was greater than 100 µM, the TGI (M14 melanoma) was greater than 100 µM and the TGI (MALME-3M melanoma) was greater than 100 µM. The TGI (MCF7 breast) was greater than 100 µM, the TGI (MDA-MB-231 breast) was greater than 100 µM and the TGI (MDA-MB-435) was greater than 100 µM. The TGI (MDA-N) was greater than 100 µM, the TGI (NCI-H226 lung) was greater than 100 µM and the TGI (NCI-H23 lung) was greater than 100 µM. The TGI (NCI-H460 lung) was greater than 100 µM, the TGI (NCI-H522 lung) was greater than 100 µM and the TGI (NCI/ADR-RES ovarian) was greater than 100 µM. For the same compound, the TGI (OVCAR-3 ovarian) was greater than 100 µM, the TGI (OVCAR-4 ovarian) was greater than 100 µM and the TGI (OVCAR-5 ovarian) was greater than 100 µM. For the same compound, the TGI (OVCAR-8 ovarian) was greater than 100 µM, the TGI (PC-3 prostate) was greater than 100 µM and the TGI (RPMI-8226 leukemia) was greater than 100 µM. The TGI (RXF 393 renal) was greater than 100 µM, the TGI (SF-268 CNS) was greater than 100 µM and the TGI (SF-295 CNS) was greater than 100 µM. It also gave a TGI (SK-MEL-2 melanoma) greater than 100 µM, a TGI (SK-MEL-28 melanoma) greater than 100 µM and a TGI (SK-MEL-5 melanoma) greater than 100 µM. For the same compound, the TGI (SK-OV-3 ovarian) was greater than 100 µM, the TGI (SN12C renal) was greater than 100 µM and the TGI (SNB-19 CNS) was greater than 100 µM. For the same compound, the TGI (SNB-75 CNS) was greater than 100 µM, the TGI (SR leukemia) was greater than 100 µM and the TGI (SW-620 colon) was greater than 100 µM. For the same compound, the TGI (T-47D breast) was greater than 100 µM, the TGI (TK-10 renal) was greater than 100 µM and the TGI (U251 CNS) was greater than 100 µM. The TGI (UACC-257 melanoma) was greater than 100 µM, the TGI (UACC-62 melanoma) was greater than 100 µM and the TGI (UO-31 renal) was greater than 100 µM.
